“And” between values parts separate entries of the source, which are not always exact repeats. Identical values can stand only once.
Legend:
[1] = Percutaneous absorption study on pig skin, Franz diffusion cell; assay type: in vitro ADME, domestic pigs (Sus domesticus); details: Franz cell receptor fluid (PBS), HPLC
Experimental: A percutaneous absorption study is performed on pig skin test samples obtained from the back of domestic pigs (Sus domesticus) weighing about 30 kg. The pig skin is dermatomed to a thickness of about 500 microns and then test discs having a diameter of 2.5 cm are sectioned from the dermatomed skin. […] The loaded films are applied to the sample discs (in contact with the stratum corneum) for 30 minutes. Different layers of the film treated skin (stratum corneum, epidermis and dermis) are separated, assayed and analyzed for the quantity of caffeine and permeation into the respective layers of the skin. The quantitative analysis for caffeine and is conducted by HPLC utilizing the instrumentation identified above.
Additionally, the same solutions utilized to load the polymer films are topically applied across the entire surface of the stratum corneum of comparative pig skin disc samples prepared as above. […]
The lower chamber contained the receptor fluid (PBS solution, Sigma-Aldrich Co. LLC). The integrity of the skin is evaluated by measuring the transepidermal water loss (TEWL). […] The collected receptor fluid is analyzed by HPLC as described above.
The quantities of caffeine that permeated into each of the three different layers of the skin samples (stratum corneum, epidermis and dermis) are collected separately as follows. […]

[2] = Concentration of active in wet polymer K after soaking, by HPLC; assay type: physicochemical; details: replicate samples
Experimental: The sample is placed in approximately 5 mL of soaking solution (TABLE 17) and suspended for 30 minutes in the solution. The sample is periodically checked to ensure it remains totally immersed in the solution. At the end of soaking time, the sample is removed and reweighed (final sample diameter, about 2.1 cm). The concentration of caffeine in the wet polymer sample is measured by HPLC and is shown in TABLE 18 (HPLC: Shimadzu Scientific Prominence System; Column: […].: 250×4.6 mm; Carrier Phase: A: Water, B: Methanol (65:35 v/v); Oven Temperature: Room Temperature (approx. 22° C.); Flow Rate: 1 mL/min.; UV detection: 254 nm). […] At the conclusion of the 30 min. soaking period the sample is removed from the dimethylmethoxy chromanyl palmitate solution and re-weighed (TABLE 20). The final sample diameter is about 2.0 cm. […] At the conclusion of the 30 min. soaking period the sample is removed from the arbutin solution and re-weighed. The final sample diameter is about 2.2 cm. […] (TABLE 23) and suspended for 90 minutes in the solution. […] At the conclusion of the 90 min. soaking period the sample is removed from the acetyl hexapeptide-37 solution and re-weighed. The final sample diameter is about 2.2 cm. […] (TABLE 25) and suspended for 90 minutes in the acetyl hexapeptide-8 solution. […] At the end of the 90 minute soaking time, the square is removed and weighed again (final piece diameter: 2.2 cm). The same study is performed with a lower concentration of peptide, as follows. […] At the end of the soaking time, the square is removed from the low concentration acetyl hexapeptide-8 solution and weighed again (final piece diameter: 2.2 cm).

In the case of `Cn1c(=O)c2c(ncn2C)n(C)c1=O` [caffeine], the “Caffeine in the collected receptor fluid” value [1] is reported as “No caffeine was present” and the “% caffeine (w/w), vs. wet polymer” value ([2]; film of polymer K soaked 30 min in soaking solution with 2 % caffeine, pH 4) is reported as 2.60 % (w/w) and 2.57 % (w/w) and 2.59 % (w/w) and 2.64 % (w/w) and 2.63 % (w/w) (2×).
With `CCCCCCCCCCCCCCCC(=O)Oc1cc2c(cc1OC)OC(C)(C)CC2` [dimethylmethoxy chromanyl palmitate] the “% Dimethylmethoxy chromanyl palmitate (w/w), vs. wet polymer” value ([2]; film of Polymer K soaked 30 minutes in liposome soaking solution with 2 % dimethylmethoxy chromanyl palmitate) was 1.074 % (w/w) and 0.964 % (w/w) and 1.009 % (w/w) and 0.994 % (w/w) and 0.888 % (w/w).
In the case of Acetyl Hexapeptide-8, the “% Acetyl Hexapeptide-8 (w/w), vs. wet polymer” value ([2]; polymer K soaked 90 minutes in a 1/5000 dilution with water of the 0.05 % soaking solution) is reported as 0.0017 % (w/w) and 0.0019 % (w/w) and the “% Acetyl Hexapeptide-8 (w/w), vs. wet polymer” value ([2]; polymer K soaked 90 minutes in soaking solution with 0.05 % acetyl hexapeptide-8) is reported as 0.0425 % (w/w) and 0.0420 % (w/w) and 0.0418 % (w/w) and 0.0434 % (w/w).
In the case of `OC[C@H]1O[C@@H](Oc2ccc(O)cc2)[C@H](O)[C@@H](O)[C@@H]1O` [Arbutin, (2R,3S,4S,5R,6S)-2Hydroxymethyl-6(4hydroxyphenoxy)oxane-3,4,5triol], the “% Arbutin (w/w), vs. wet polymer” value ([2]; film of polymer K soaked 30 minutes in soaking solution with 4 % arbutin, pH 5.5) is reported as 1.42 % (w/w) and 1.61 % (w/w) (2×) and 1.45 % (w/w) and 1.78 % (w/w).
